US9615577B2, “Herbicidally active cyclic dione compounds, or derivatives therefor, substituted by a phenyl which has an alkynyl-containing substituent” (Syngenta Limited, priority 2012, dated 2017)

Tests used:
Type in all cases: in vivo
[1] = system: Brassica napus (BRSNN, rape); test: Test 1B glasshouse assay for herbicidal activity, post-emergence; details: 360 h; for plant injury at 30 g/ha: 30 g/ha application rate; for plant injury at 125 g/ha: 125 g/ha application rate
Description: (§1) Seeds of a variety of monocotyledonous and dicotyledonous test plants are sown in standard soil in pots. The plants are cultivated for one day (for pre-emergence) or for about 12 days (range=10-13 days) (for post-emergence) under controlled conditions in a glasshouse (warm climate species at 24/18° C., cool climate species at 20/16° C., both at day/night; 16 hours light; 65% humidity).
(§2) An “instant formulation”, known as the “IF50”, containing 50 g/liter (i.e. 5% w/v) of the “technical” (i.e. unformulated) active ingredient is prepared by dissolving the active ingredient in a mixture of organic solvents and emulsifier, details of which are provided in the Table below. This IF50 is then mixed with a small, variable amount of acetone to aid dissolution, before addition of a 0.2% v/v aqueous solution of the adjuvant X-77 (which is a mixture of alkyl aryl polyoxyethylene glycols and free fatty acids in isopropanol, CAS Registry number 11097-66-8), as the aqueous diluent, to form an aqueous spray solution which contains a predetermined concentration of the active ingredient (which varies depending on the application rate of the active ingredient to the plants) and 0.2% v/v of the adjuvant X-77. This aqueous spray solution is then sprayed onto the plants, after one day's cultivation (for pre-emergence) or after about 12 days' cultivation (for post-emergence).
(§3) The test plants are then grown on, in a glasshouse (greenhouse) under controlled conditions (at either 24/18° C. or 20/16° C. (day/night) as mentioned above; 16 hours light; 65% humidity) and are watered twice daily. Either 15 days after application of the herbicide (15 DAA) (for post-emergence), or 20 days after application of the herbicide (20 DAA) (for pre-emergence), the test plants are evaluated visually, and an assessed percentage phytotoxicity score is given for each herbicidal application on each plant species (where 100%=total damage to plant; 0%=no damage to plant).
(§4) Cool climate crop plants: Triticum aestivum (TRZAW, winter wheat), Brassica napus (BRSNN, rape, also called oilseed rape or rapeseed), Beta vulgaris (BEAVA, sugar beet).

[2] = system: Triticum aestivum (TRZAW, winter wheat); test: as above; details: 360 h; for plant injury at 30 g/ha: 30 g/ha application rate; for plant injury at 125 g/ha: 125 g/ha application rate
Description: as §1, §2, §3, §4

[3] = system: Beta vulgaris (BEAVA, sugar beet); test: as above; details: 360 h; for plant injury at 30 g/ha: 30 g/ha application rate; for plant injury at 125 g/ha: 125 g/ha application rate
Description: as §1, §2, §3, §4

[4] = system: Brachiaria plantaginea (BRAPL); test: as above; details: Urochloa plantaginea; for pest or weed control at 30 g/ha: 30 g/ha application rate; for pest or weed control at 125 g/ha: 125 g/ha application rate
In short: (§5)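 Seeds sown in standard soil; sprayed after 1 day (pre-emergence) or ~12 days (post-emergence) with active ingredient from a 50 g/liter IF50 formulation diluted in 0.2% v/v X-77 aqueous adjuvant. Glasshouse at 24/18° C. day/night, 16 h light, 65% humidity; visual % phytotoxicity scored 20 DAA (pre) or 15 DAA (post).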

[5] = system: Amaranthus retroflexus (AMARE); test: Test 1A glasshouse assay for herbicidal activity, pre-emergence; details: 312 h, evaluated after 13 days, read-out: percentage phytotoxicity AMARE
In short: (§6)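 Pre-em: spray 1 d after sowing; post-em: spray after 8 d cultivation. Formulation in acetone/water (50:50), 0.5% Tween 20. Glasshouse 24/16 °C d/n, 14 h light, 65% humidity. Readout: visual % damage at 13 d.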

[6] = system: Alopecurus myosuroides (ALOMY); test: as above; details: 312 h, evaluated after 13 days, read-out: percentage phytotoxicity ALOMY
In short: as §6

[7] = system: Echinochloa crus-galli (ECHCG); test: as above; details: 312 h, evaluated after 13 days, read-out: percentage phytotoxicity ECHCG
In short: as §6

[8] = system: Setaria faberi (SETFA); test: as above; details: 312 h, evaluated after 13 days, read-out: percentage phytotoxicity SETFA
In short: as §6

[9] = system: Abutilon theophasti Medik. (ABUTH); test: Test 1A glasshouse assay for herbicidal activity, post-emergence; details: 312 h, evaluated after 13 days, read-out: percentage phytotoxicity ABUTH
In short: as §6

[10] = system: Avena fatua (AVEFA); test: Test 1B glasshouse assay for herbicidal activity, pre-emergence; details: 480 h, 20 DAA, read-out: percentage phytotoxicity AVEFA
Description: as §1, §2, §3
(§7) Cool climate (“cool season”) grassy monocotyledonous weeds: Alopecurus myosuroides (ALOMY), Avena fatua (AVEFA), Lolium perenne (LOLPE).

[11] = system: Lolium perenne (LOLPE); test: as above; details: 480 h, 20 DAA, read-out: percentage phytotoxicity LOLPE
Description: as §1, §2, §3, §7

[12] = system: Alopecurus myosuroides (ALOMY); test: as above; details: 480 h, 20 DAA, read-out: percentage phytotoxicity ALOMY
Description: as §1, §2, §3, §7

[13] = system: SORVU (Sorghum bicolor (L.) Moench ssp. Bicolor, or Sorghum vulgare Pers.); test: as above; details: 480 h, 20 DAA, read-out: percentage phytotoxicity SORVU
In short: as §5

[14] = system: Setaria faberi (SETFA); test: as above; details: 480 h, 20 DAA, read-out: percentage phytotoxicity SETFA
In short: as §5

[15] = system: Echinochloa crus-galli (ECHCG); test: Test 1B glasshouse assay for herbicidal activity, post-emergence; details: Echinochloa crus-galli; for pest or weed control at 30 g/ha: 30 g/ha application rate; for pest or weed control at 125 g/ha: 125 g/ha application rate
Description: as §1, §2, §3
Warm climate (“warm season”) grassy monocotyledonous weeds: Setaria faberi (SETFA), SORVU (Sorghum bicolor (L.) Moench ssp. Bicolor, or Sorghum vulgare Pers.), Digitaria sanguinalis (DIGSA), Echinochloa crus-galli (ECHCG), and Brachiaria plantaginea (BRAPL).
Note: The herbicidal activity data (e.g. post-emergence) shown above in Biological Example 1B for Comparator compounds X-9 and X-10 is thought likely to have been measured some years ago, probably using a variant of the above-described test method. Also, for the post-emergence activity of X-9 and X-10 it is not currently known exactly how many days after application of the herbicide the phytotoxicity on the plants was measured.

SMILES | plant injury at 30 g/ha [1] | plant injury at 125 g/ha [1] | plant injury at 30 g/ha [2] | plant injury at 125 g/ha [2] | plant injury at 30 g/ha [3] | plant injury at 125 g/ha [3] | pest or weed control at 30 g/ha [4] | pest or weed control at 125 g/ha [4] | pest or weed control at 250 g/ha [5] | pest or weed control at 250 g/ha [6] | pest or weed control at 250 g/ha [7] | pest or weed control at 250 g/ha [8] | pest or weed control at 250 g/ha [9] | pest or weed control at 30 g/ha [15] | pest or weed control at 125 g/ha [15] | pest or weed control at 250 g/ha [10] | pest or weed control at 250 g/ha [11] | pest or weed control at 250 g/ha [12] | pest or weed control at 250 g/ha [13] | pest or weed control at 250 g/ha [14] | other results
CC#Cc1cc(C)c(C2C(=O)C3CCC(C3)C2=O)c(C)c1 (centres unmarked) [Compound A-5] | 70% | 80% | 30% | 70% | 40% | 30% | 90% | 100% | 0% | 100% | 100% | 90% | 60% | 100% | 100% | – | – | – | – | – | plant injury at 60 g/ha ([1]; 60 g/ha application rate): 70%; plant injury at 500 g/ha ([1]; 500 g/ha application rate): 80%; plant injury at 60 g/ha ([2]; 60 g/ha application rate): 30%; plant injury at 500 g/ha ([2]; 500 g/ha application rate): 80%; plant injury at 60 g/ha ([3]; 60 g/ha application rate): 40%; plant injury at 500 g/ha ([3]; 500 g/ha application rate): 30%; pest or weed control at 60 g/ha ([4]; 60 g/ha application rate): 100%; pest or weed control at 500 g/ha ([4]; 500 g/ha application rate): 100%; pest or weed control at 30 g/ha [9]: 0%; pest or weed control at 500 g/ha ([10]; 500 g/ha): 40%; pest or weed control at 500 g/ha ([11]; 500 g/ha): 100%; pest or weed control at 500 g/ha ([12]; 500 g/ha): 80%; pest or weed control at 500 g/ha ([13]; 500 g/ha): 90%; pest or weed control at 500 g/ha ([14]; 500 g/ha): 90%; pest or weed control at 60 g/ha ([15]; 60 g/ha application rate): 100%; pest or weed control at 500 g/ha ([15]; 500 g/ha application rate): 100%
CC#Cc1cc(C)c(C2C(=O)C3CCC(C3)C2=O)c(OC)c1 (centres unmarked) [Compound A-10] | 40% | 60% | 60% | 80% | 20% | 20% | 90% | 100% | 0% | 100% | 100% | 100% | 80% | 90% | 100% | – | – | – | – | – | pest or weed control at 125 g/ha ([10]; 125 g/ha): 60%; pest or weed control at 125 g/ha ([11]; 125 g/ha): 100%; pest or weed control at 125 g/ha ([12]; 125 g/ha): 80%; pest or weed control at 125 g/ha ([13]; 125 g/ha): 80%; pest or weed control at 125 g/ha ([14]; 125 g/ha): 80%
CC#Cc1cc(Cl)c(C2C(=O)C3CCC(C3)C2=O)c(OC)c1 (centres unmarked) [Compound A-12] | 60% | 80% | 40% | 60% | 0% | 20% | 70% | 100% | 0% | 100% | 100% | 100% | 50 to 60% | 90% | 100% | 50% | 100% | 60% | 90% | 100% | pest or weed control at 62.5 g/ha ([5]; 62.5 g/ha): 0%; pest or weed control at 62.5 g/ha ([6]; 62.5 g/ha): 90%; pest or weed control at 62.5 g/ha ([7]; 62.5 g/ha): 90%; pest or weed control at 62.5 g/ha ([8]; 62.5 g/ha): 100%; pest or weed control at 62.5 g/ha ([9]; 62.5 g/ha): 0%
CC#Cc1cc(C)c(C2C(=O)CC(c3ccccn3)CC2=O)c(C)c1 (centres unmarked) [Compound A-13] | – | 70% | – | 30% | – | 20% | – | 100% | 80% | 100% | 100% | 100% | 80% | – | 80% | 30% | 100% | 80% | 80% | 80% | pest or weed control at 30 g/ha ([5]; 30 g/ha): 100%; pest or weed control at 30 g/ha ([6]; 30 g/ha): 70%; pest or weed control at 30 g/ha ([7]; 30 g/ha): 100%; pest or weed control at 30 g/ha ([8]; 30 g/ha): 70%; pest or weed control at 30 g/ha [9]: 40%
CC#Cc1cc(C)c(C2=C(OC(=O)OC)CC(c3ccccn3)CC2=O)c(C)c1 (centres unmarked) [Compound A-14] | 60% | 70% | 60% | 80% | 30% | 40% | 70% | 100% | 70% | 100% | 100% | 100% | 80% | 80% | 100% | 70% | 100% | 80% | 80% | 90% | –
